Measurements reported in patent US8735397B2, “Method for treating schizophrenia and related diseases” (Vanderbilt University, priority 2010, dated 2014).
Entries after “also recorded” stand apart in the source; their conditions may differ. Structures can show the parent of a compound that is named as a salt.

Tests used:
[1] = system: PCP-induced NOR deficits in sub-chronic PCP treated rats; assay: Novel object recognition (NOR) test after subchronic PCP treatment; assay type: in vivo, Female Long-Evans rats; conditions: for Acquisition (sec) Left, exploration time / Acquisition (sec) Right, exploration time / Retention (sec) Familiar, exploration time / Retention (sec) Novel, exploration time: mean±SEM; for Effective dose for reversing PCP-induced NOR deficits / Sub-effective dose in PCP-induced NOR deficit: single agent, acute administration after subchronic PCP
Method: Female Long-Evans rats received vehicle or PCP (2 mg/kg, i.p.) twice daily for 7 days, followed by a 7-day washout period (n=6-9/group). Phencyclidine (PCP) which is known to induce schizophrenia-like symptoms in human normal subjects and to exacerbate symptoms in patients with schizophrenia was dissolved in distilled water and administered in a volume of 1 ml/kg.
On the test day, in the first set of experiments, lurasidone HCl (0.03 and 0.1 mg/kg; produced by Dainippon Sumitomo Pharma Co., Ltd.), clozapine (0.3 mg/kg), LY379268 (1 mg/kg; Tocris Bioscience) alone, or haloperidol (0.1 mg/kg), pimavanserin (3 mg/kg), lurasidone HCl (0.03 mg/kg), clozapine (0.1 mg/kg) in combination with LY379268 (1 mg/kg) were administered intraperitoneally in a volume of 1 ml/kg, 30 min before the novel object recognition (NOR) test. In the second set of experiments, LY404039 (1 mg/kg; produced by Dainippon Sumitomo Pharma Co., Ltd.) alone was orally administered in a volume of 4 ml/kg 60 min before the novel object recognition (NOR) test. For combination with lurasidone HCl, LY404039 (1 mg/kg, p.o.) and lurasidone HCl (0.03 mg/kg, i.p.) were administered 60 min and 30 min before the novel object recognition (NOR) test, respectively. In the third set of experiments, BINA (30 mg/kg; produced by Dainippon Sumitomo Pharma Co., Ltd.) alone or BINA (30 mg/kg) in combination with lurasidone HCl (0.03 mg/kg) was administered intraperitoneally in a volume of 1 ml/kg 30 min before the novel object recognition (NOR) test.
Haloperidol, pimavanserin, and LY404039 were dissolved in distilled water. Lurasidone HCl was dissolved 0.5% methylcellulose, 0.2% Tween 80. Clozapine was dissolved in a small amount of 0.1 M phosphoric acid, and the pH was adjusted to 6 to 7 with 0.1 N NaOH. LY379268 was dissolved in saline. BINA was dissolved in 10% Tween 80, 10% 1N NaOH, and the pH was adjusted to 7 with 1N HCl.
The object recognition test was performed in an open field comprising a square box made of Plexiglas (52/52/31 cm) placed 37 cm above the floor on an immoveable stand. The floor of the box was white with black gridlines forming nine identical squares on it. All other walls were black. A video camera connected to a video recorder and monitor was positioned above the box. The objects used for the test consisting of four heavy pyramidal structures made of metal or Perspex that could not be displaced by the animals. Care was taken to ensure that these objects were not of any natural significance to the rats.
Testing was carried out according to a previously validated method (Grayson et al., Behay. Brain Res. 2007 184, 31-38; Snigdha et al., J. Pharmacol. Exp. Ther., 2010 332 (2), 622-31). The rats were familiarized to the test environment and NOR arena before the test day. Habituation consisting of placing the subjects in the empty NOR arena for 1 h, on the day before the test day (day 1). Before behavioral testing on day 2, rats were given a further 3-min habituation. For each experimental trial after the 3-min habituation period, the rats were given two 3-min trials (T1 and T2), separated by a 1-min intertrial interval in the home cage during which the objects were changed and the arena was cleaned. In Trial 1 (T1) or the acquisition trial, the animals were allowed to explore two identical objects (A1 and A2) for 3 min. In the second trial (T2) or the retention trial, the animals explored a familiar object (A) from T1 and a novel object (B) for 3 min. The familiar object presented during T2 was a duplicate of the object presented in T1 to avoid any olfactory trails. Each rat was tested three or four times in the NOR paradigm. To reduce carryover effects, a 7-day washout period was given between each of the test sessions. The criterion for continuing to test the rats was based on mean total exploration time in the acquisition or retention phase 5 seconds. […] This happened rarely and not enough to affect the ability to use the remaining animals for analysis. […]

dopamine D2 receptor = dopamine D2 receptor (Homo sapiens, UniProt P14416); conditions: cited from earlier work
Sequence of dopamine D2 receptor (P14416 whole entry): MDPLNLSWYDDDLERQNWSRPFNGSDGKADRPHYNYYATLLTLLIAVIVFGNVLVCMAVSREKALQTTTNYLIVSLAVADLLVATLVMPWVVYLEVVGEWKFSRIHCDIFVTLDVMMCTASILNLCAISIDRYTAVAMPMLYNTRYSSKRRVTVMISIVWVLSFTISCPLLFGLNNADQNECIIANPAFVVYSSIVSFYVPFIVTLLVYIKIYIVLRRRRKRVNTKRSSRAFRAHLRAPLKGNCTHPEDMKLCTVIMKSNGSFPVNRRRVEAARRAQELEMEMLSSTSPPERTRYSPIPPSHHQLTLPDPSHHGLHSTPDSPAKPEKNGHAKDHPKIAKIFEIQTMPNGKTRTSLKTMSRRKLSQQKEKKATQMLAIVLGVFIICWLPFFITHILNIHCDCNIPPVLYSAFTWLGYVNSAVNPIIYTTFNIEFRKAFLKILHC

serotonin 5-HT7 receptor = serotonin 5-HT7 receptor (Homo sapiens, UniProt P34969); conditions: cited from earlier work
Sequence of serotonin 5-HT7 receptor (P34969 whole entry): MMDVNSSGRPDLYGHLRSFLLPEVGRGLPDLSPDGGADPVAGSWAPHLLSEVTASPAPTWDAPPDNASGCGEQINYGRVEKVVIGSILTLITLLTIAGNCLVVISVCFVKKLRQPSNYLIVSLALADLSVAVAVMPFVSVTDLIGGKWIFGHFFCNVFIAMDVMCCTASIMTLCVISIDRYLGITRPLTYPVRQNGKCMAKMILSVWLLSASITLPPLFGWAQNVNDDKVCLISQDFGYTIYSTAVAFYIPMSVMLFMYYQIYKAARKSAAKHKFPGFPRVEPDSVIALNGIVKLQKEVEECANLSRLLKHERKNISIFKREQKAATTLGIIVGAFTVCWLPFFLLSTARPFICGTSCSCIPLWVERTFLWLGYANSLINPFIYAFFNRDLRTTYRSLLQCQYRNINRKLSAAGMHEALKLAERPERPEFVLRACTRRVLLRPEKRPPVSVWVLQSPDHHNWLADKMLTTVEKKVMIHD

[2] = target: T1, noradrenaline α2C receptor (Homo sapiens, UniProt P18825); conditions: cited from earlier work
T1 sequence (P18825 1-462): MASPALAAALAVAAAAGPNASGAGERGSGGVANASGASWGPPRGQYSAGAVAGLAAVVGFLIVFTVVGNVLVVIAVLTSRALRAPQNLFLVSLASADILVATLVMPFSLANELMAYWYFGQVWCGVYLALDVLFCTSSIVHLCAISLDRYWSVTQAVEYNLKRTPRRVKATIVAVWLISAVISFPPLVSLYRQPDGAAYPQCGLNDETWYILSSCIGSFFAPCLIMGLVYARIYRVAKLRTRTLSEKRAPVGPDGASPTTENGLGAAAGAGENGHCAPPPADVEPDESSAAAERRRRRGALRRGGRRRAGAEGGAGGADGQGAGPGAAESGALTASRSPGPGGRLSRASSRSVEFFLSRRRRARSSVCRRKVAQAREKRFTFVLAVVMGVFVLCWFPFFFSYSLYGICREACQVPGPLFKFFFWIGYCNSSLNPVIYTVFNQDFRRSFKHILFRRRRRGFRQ

histamine H1 receptor = histamine H1 receptor (Homo sapiens, UniProt P35367); conditions: cited from earlier work
Sequence of histamine H1 receptor (P35367 whole entry): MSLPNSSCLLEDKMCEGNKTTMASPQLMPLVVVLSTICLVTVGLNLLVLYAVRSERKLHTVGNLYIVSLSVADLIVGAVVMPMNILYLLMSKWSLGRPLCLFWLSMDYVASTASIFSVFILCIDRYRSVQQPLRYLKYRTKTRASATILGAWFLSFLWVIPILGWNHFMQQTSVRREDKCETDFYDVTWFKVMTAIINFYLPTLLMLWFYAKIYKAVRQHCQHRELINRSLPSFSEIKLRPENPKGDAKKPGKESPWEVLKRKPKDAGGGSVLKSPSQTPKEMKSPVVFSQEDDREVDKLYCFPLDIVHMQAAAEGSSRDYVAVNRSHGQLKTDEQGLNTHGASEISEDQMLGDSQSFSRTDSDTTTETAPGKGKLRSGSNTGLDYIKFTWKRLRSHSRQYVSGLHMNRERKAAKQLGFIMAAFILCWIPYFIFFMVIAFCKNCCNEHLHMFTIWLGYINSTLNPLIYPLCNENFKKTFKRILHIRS

muscarinic M1 receptor = target: T2, muscarinic M1 receptor (Homo sapiens, UniProt P11229); conditions: cited from earlier work
T2 sequence (P11229 1-460): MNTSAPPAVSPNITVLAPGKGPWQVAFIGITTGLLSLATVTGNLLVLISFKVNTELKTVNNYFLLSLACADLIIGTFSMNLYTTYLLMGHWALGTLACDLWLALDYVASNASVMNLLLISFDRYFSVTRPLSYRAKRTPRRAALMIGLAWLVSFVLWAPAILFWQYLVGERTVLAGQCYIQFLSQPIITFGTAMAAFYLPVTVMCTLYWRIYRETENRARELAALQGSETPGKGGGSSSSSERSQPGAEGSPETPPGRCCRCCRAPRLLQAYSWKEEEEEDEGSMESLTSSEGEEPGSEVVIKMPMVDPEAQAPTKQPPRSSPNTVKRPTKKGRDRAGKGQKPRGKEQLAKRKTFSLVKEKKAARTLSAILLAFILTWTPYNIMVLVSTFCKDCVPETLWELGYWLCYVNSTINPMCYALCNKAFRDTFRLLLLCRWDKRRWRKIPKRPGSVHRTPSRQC

[3] = target: serotonin 5-HT2A receptor (Homo sapiens, UniProt P28223); conditions: cited from earlier work
Sequence of serotonin 5-HT2A receptor (P28223 whole entry): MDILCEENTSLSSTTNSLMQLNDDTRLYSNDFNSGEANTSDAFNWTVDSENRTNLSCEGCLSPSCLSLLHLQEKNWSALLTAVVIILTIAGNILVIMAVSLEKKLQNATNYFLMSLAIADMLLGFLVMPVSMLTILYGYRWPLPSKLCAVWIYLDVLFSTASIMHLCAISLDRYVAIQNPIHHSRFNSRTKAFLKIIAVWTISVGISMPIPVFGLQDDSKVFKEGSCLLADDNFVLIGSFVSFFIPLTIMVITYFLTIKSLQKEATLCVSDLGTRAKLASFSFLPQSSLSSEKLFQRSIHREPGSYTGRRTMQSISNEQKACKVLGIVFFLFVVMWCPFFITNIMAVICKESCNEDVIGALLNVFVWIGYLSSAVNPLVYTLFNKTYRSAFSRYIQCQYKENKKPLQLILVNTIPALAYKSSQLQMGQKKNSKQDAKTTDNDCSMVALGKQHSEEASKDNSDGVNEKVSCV

[4] = target: T3, serotonin 5-HT1A receptor (Homo sapiens, UniProt P08908); conditions: cited from earlier work
T3 sequence (P08908 1-422): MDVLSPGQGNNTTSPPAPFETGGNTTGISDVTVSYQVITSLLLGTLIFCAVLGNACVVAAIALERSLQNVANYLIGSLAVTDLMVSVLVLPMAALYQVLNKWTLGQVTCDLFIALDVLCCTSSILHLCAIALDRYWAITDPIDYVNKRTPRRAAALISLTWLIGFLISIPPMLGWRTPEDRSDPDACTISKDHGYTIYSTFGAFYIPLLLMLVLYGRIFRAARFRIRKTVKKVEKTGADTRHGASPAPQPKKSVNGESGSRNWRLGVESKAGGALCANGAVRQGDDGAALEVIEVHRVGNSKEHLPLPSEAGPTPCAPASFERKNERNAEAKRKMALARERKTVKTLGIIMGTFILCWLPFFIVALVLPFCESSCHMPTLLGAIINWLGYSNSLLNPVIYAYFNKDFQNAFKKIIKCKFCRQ

[5] = PCP + clozapine 0.1 mg/kg, n=6 to 8
[6] = PCP + clozapine 0.3 mg/kg i.p. 30 min before NOR, n=6 to 8
[7] = PCP + lurasidone HCl 0.03 mg/kg i.p. 30 min before NOR, n=7 to 8
[8] = PCP + lurasidone HCl 0.1 mg/kg i.p. 30 min before NOR, n=7 to 8
[9] = PCP + BINA 30 mg/kg i.p. 30 min before NOR, n=7 to 9
[10] = PCP + LY379268 1 mg/kg i.p. 30 min before NOR, n=6 to 8
[11] = PCP + LY404039 1 mg/kg p.o. 60 min before NOR, n=7 to 8

SMILES: CN1CCN(C2=Nc3cc(Cl)ccc3Nc3ccccc32)CC1 [Clozapine]
- Acquisition (sec) Left, exploration time [1, 5]: 12.7 ± 3.5 s
- Acquisition (sec) Right, exploration time [1, 5]: 10.6 ± 2.1 s
- Retention (sec) Familiar, exploration time [1, 5]: 9.1 ± 1.9 s
- Retention (sec) Novel, exploration time [1, 5]: 11.0 ± 2.8 s
- Acquisition (sec) Left, exploration time [1, 6]: 13.1 ± 2.9 s
- Acquisition (sec) Right, exploration time [1, 6]: 11.4 ± 2.5 s
- Retention (sec) Familiar, exploration time [1, 6]: 7.3 ± 1.7 s
- Retention (sec) Novel, exploration time [1, 6]: 16.3 ± 2.8 s
- Effective dose for reversing PCP-induced NOR deficits [1]: 0.3 mg/kg
- Sub-effective dose in PCP-induced NOR deficit [1]: 0.1 mg/kg

SMILES: O=C1[C@@H]2[C@H]3CC[C@H](C3)[C@@H]2C(=O)N1C[C@@H]1CCCC[C@H]1CN1CCN(c2nsc3ccccc23)CC1 [Lurasidone HCl]
- Acquisition (sec) Left, exploration time [1, 7]: 11.4 ± 3.1 s
- Acquisition (sec) Right, exploration time [1, 7]: 8.3 ± 1.8 s
- Retention (sec) Familiar, exploration time [1, 7]: 7.6 ± 2.3 s
- Retention (sec) Novel, exploration time [1, 7]: 8.9 ± 1.7 s
- Acquisition (sec) Left, exploration time [1, 8]: 10.9 ± 1.3 s
- Acquisition (sec) Right, exploration time [1, 8]: 10.9 ± 0.8 s
- Retention (sec) Familiar, exploration time [1, 8]: 4.6 ± 1.0 s
- Retention (sec) Novel, exploration time [1, 8]: 11.4 ± 2.2 s
- Effective dose for reversing PCP-induced NOR deficits [1]: 0.1 mg/kg

SMILES: O=C1[C@@H]2[C@H]3CC[C@H](C3)[C@@H]2C(=O)N1C[C@@H]1CCCC[C@H]1CN1CCN(c2nsc3ccccc23)CC1 [Lurasidone, (3aR,4S,7R,7aS)-2-{(1R,2R)-2-[4-(1,2-benzisothiazol-3-yl)piperazin-1-ylmethyl]cyclo-hexylmethyl}hexahydro-4,7-methano-2H-isoindole-1,3-dione]
- Effective dose for reversing PCP-induced NOR deficits [1]: 0.1 mg/kg
- Sub-effective dose in PCP-induced NOR deficit [1]: 0.03 mg/kg
- Affinity for dopamine D2 receptors (dopamine D2 receptor): high affinity
- Affinity for serotonin 5-HT7 receptors (serotonin 5-HT7 receptor): high affinity
- Affinity for noradrenaline α2C receptors [2]: high affinity
- Affinity for histamine H1 receptors (histamine H1 receptor): minimal to no affinity
- Affinity for muscarinic M1 receptors (muscarinic M1 receptor): minimal to no affinity
- Affinity for serotonin 5-HT2A receptors [3]: high affinity
- Affinity for serotonin 5-HT1A receptors [4]: high affinity

SMILES: Cc1c(OCc2cccc(-c3ccc(C(=O)O)cc3)c2)cc2c(c1C)C(=O)C(C1CCCC1)C2 (stereo not shown) [BINA, 3′-(2-Cyclopentyl-6,7-dimethyl-1-oxoindan-5-yloxy-methyl)biphenyl-4-carboxylic acid]
- Effect on PCP-induced NOR deficits ([1]; BINA alone 30 mg/kg i.p.): did not attenuate the PCP-induced NOR deficits; also recorded: did not improve the PCP-induced deficit in NOR
- Acquisition (sec) Left, exploration time [1, 9]: 9.8 ± 1.5 s
- Acquisition (sec) Right, exploration time [1, 9]: 10.7 ± 2.0 s
- Retention (sec) Familiar, exploration time [1, 9]: 6.0 ± 1.1 s
- Retention (sec) Novel, exploration time [1, 9]: 7.9 ± 1.0 s

SMILES: N[C@@]1(C(=O)O)CO[C@H]2[C@H](C(=O)O)[C@H]21 [LY379268, (1R,4R,5S,6R)-4-Amino-2-oxabicyclo[3.1.0]hexane-4,6-dicarboxylic acid]
- Effect on PCP-induced NOR deficits ([1]; LY379268 alone 1 mg/kg i.p.): did not attenuate the PCP-induced NOR deficits; also recorded: did not attenuate the PCP-induced deficit in NOR
- Acquisition (sec) Left, exploration time [1, 10]: 12.4 ± 2.6 s
- Acquisition (sec) Right, exploration time [1, 10]: 11.0 ± 4.2 s
- Retention (sec) Familiar, exploration time [1, 10]: 8.3 ± 1.5 s
- Retention (sec) Novel, exploration time [1, 10]: 9.7 ± 2.2 s

SMILES: N[C@@]1(C(=O)O)CS(=O)(=O)[C@H]2[C@H](C(=O)O)[C@H]21 [LY404039, (−)-(1R,4S,5S,6S)-4-Amino-2-thiabicyclo[3.1.0]hexane-4,6-dicarboxylic acid S,S-dioxide]
- Effect on PCP-induced NOR deficits ([1]; LY404039 alone 1 mg/kg p.o.): did not attenuate the PCP-induced NOR deficits; also recorded: did not improve the PCP-induced deficit in NOR
- Acquisition (sec) Left, exploration time [1, 11]: 9.3 ± 0.8 s
- Acquisition (sec) Right, exploration time [1, 11]: 8.4 ± 0.9 s
- Retention (sec) Familiar, exploration time [1, 11]: 5.5 ± 1.1 s
- Retention (sec) Novel, exploration time [1, 11]: 7.3 ± 0.8 s
